Results as given in US11667602B2, “Compounds and their use” (AstraZeneca AB, priority 2020, dated 2023).
≈ marks a conversion by molar mass, not a printed value.

How the values were obtained:
[1] = cited from earlier work
[2] = Human Liver Microsomal Stability (Test C); assay type: in vitro ADME; conditions: for microsomal CLint: human, liver microsomes
Method in brief: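 CLint (μl/min/mg protein) derived from compound depletion in human liver microsomes following a published standardized early-DMPK protocol; replicate determinations given as arithmetic mean.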

[3] = Solubility (Test F); assay type: physicochemical; conditions: arithmetic mean if run multiple times
Protocol: The assay was conducted according to the Solubility Assay described in pages 164-167 of Wernevik, J. et al., “A Fully Integrated Assay Panel for Early Drug Metabolism and Pharmacokinetics Profiling”, Assay and Drug Development Technologies, 2020, 18(4), 157-179. Data are reported in Table 36 as solubility ([…]. Where the assay was run multiple times for the same compound, the arithmetic mean is reported.

[4] = Rat Hepatocyte Stability (Test E); assay type: in vitro ADME; conditions: geometric mean if run multiple times; for hepatocyte CLint: rat, hepatocytes
Method in brief: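 Intrinsic clearance in rat hepatocytes, expressed as μl/min/10^6 cells, following the literature integrated DMPK panel method. Repeat determinations combined as geometric mean.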

[5] = Human Plasma Protein Binding (Test B); assay type: in vitro ADME; conditions: fraction unbound (fu)
Method in brief: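 Values given as % free (fu) in human plasma, using the method of Wernevik et al. (2020). For compounds tested more than once, the arithmetic mean is given.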

[6] = Human Hepatocyte Stability (Test D); assay type: in vitro ADME; conditions: geometric mean if run multiple times; for hepatocyte CLint at 1 µM: human, cryopreserved pooled human hepatocytes (LiverPool 10-Donor)
Method in brief: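 Intrinsic clearance (μL/min/10^6 cells), derived as kV/N from the log-linear loss of parent compound. Compound incubated at 37 °C with cryopreserved pooled human hepatocytes, 0.25×10^6 cells in 0.25 mL L-15; dosing solution 100 μM in acetonitrile. Singlicate incubations, cassette LC-MS; repeats reported as geometric mean.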

[7] = molecular target: T1, human RXFP1 (Homo sapiens, UniProt Q9HBX9); test: RXFP1 Hu cAMP (Test A); assay type: cell-based; design: expressed in transfected cells; host or cells: Jump-In T-REx CHO-K1 cells (ThermoFisher), induced with 10 ng/ml doxycycline for 24 h; conditions: RXFP1 Hu cAMP; for EC50: read-out: Test A EC50
T1 sequence (Q9HBX9 1-757): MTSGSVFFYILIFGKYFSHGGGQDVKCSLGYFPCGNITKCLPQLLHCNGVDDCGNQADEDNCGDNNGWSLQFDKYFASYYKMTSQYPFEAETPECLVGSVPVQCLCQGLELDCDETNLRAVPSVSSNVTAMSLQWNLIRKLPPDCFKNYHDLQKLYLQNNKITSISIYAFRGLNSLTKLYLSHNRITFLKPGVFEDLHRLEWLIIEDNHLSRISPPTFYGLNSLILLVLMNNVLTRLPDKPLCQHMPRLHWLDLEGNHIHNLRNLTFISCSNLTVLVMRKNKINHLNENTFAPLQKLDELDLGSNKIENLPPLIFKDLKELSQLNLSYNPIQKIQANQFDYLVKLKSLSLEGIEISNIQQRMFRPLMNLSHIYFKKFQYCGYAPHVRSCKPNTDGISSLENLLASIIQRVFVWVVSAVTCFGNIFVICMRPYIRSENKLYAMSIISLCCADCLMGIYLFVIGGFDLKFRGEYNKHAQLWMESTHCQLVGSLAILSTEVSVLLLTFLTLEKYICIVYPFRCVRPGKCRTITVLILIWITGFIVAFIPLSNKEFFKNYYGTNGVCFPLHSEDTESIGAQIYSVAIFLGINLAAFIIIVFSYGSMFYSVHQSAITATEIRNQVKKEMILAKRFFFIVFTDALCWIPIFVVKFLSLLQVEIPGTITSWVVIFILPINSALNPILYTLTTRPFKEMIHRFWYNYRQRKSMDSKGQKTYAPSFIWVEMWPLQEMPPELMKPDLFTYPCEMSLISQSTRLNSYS
Method in brief: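 Competitive HTRF cAMP readout (2 h, room temperature) in CHO-K1 cells stably expressing human RXFP1, induced with 10 ng/ml doxycycline for 24 h; IBMX 0.5 mM final.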

Molecule | solubility [3] | Test B Human Plasma Protein Binding (% free) [5] | Test A Sinf [7] | EC50 [7] | microsomal CLint [2] | hepatocyte CLint [4] | hepatocyte CLint at 1 µM [6] | significant blood pressure drop ([1]; approximately one third of the patients, after receiving serelaxin intravenously) | markers of cardiac, renal and hepatic damage and congestion ([1]; continuous intravenous administration to hospitalized patients) | clearance from the patients' circulation ([1]; patients, positive effects rapidly disappeared once intravenous injection stopped) | Test C Human Liver Microsomal Stability Clint ([2]; human liver microsomes) | Test E Rat Hepatocyte Stability Clint ([4]; rat hepatocytes) | Test D Human Hepatocyte Stability Clint ([6]; human hepatocytes)
serelaxin | – | – | – | – | – | – | – | > 40 mm Hg | improved | rapid clearance | – | – | –
COc1cc(F)c(O[C@H]2CC[C@@](C)(C(=O)O)CC2)cc1C(=O)N[C@@H]1COCC[C@@H]1C(=O)Nc1cccc(S(=O)(=O)C(F)(F)F)c1 (relative stereo) [Example 559, (1R,4s)-4-(2-Fluoro-4-methoxy-5-(((3S*,4S*)-4-((3-((trifluoromethyl)sulfonyl)phenyl)carbamoyl)tetrahydro-2H-pyran-3-yl)carbamoyl)phenoxy)-1-methylcyclohexane-1-carboxylic acid] | 900 µM (≈ 595 µg/mL) | 2.5 % free | 102% | 1200 nM | – | – | – | – | – | – | 9.4 µL/min/mg | 8.4 μL/min/10^6 cells | 4.1 μL/min/10^6 cells
COc1cc(F)c(O[C@H]2CC[C@@H](C(=O)O)CC2)cc1C(=O)N[C@@H]1[C@H]2CC[C@H](C2)[C@@H]1C(=O)Nc1ccccc1 [Example 201, (1S,4s)-4-(2-Fluoro-4-methoxy-5-(((1S,2R,3S,4R)-3-(phenylcarbamoyl)bicyclo[2.2.1]heptan-2-yl)carbamoyl)phenoxy)cyclohexane-1-carboxylic acid] | 940 µM (≈ 493 µg/mL) | 1.6 % free | 98% | 7200 nM | 23 µL/min/mg | 190 µL/min/1e6 cells | 7.6 µL/min/1e6 cells | – | – | – | – | – | –
COc1cc(F)c(O[C@H]2CC[C@@](C)(C(=O)O)CC2)cc1C(=O)Nc1cc(Cl)ccc1C(=O)NCC1(C)CCC1 [Example 155, (1s,4s)-4-(5-((5-Chloro-2-(((1-methylcyclobutyl)methyl)carbamoyl)phenyl)carbamoyl)-2-fluoro-4-methoxyphenoxy)-1-methylcyclohexane-1-carboxylic acid] | 37 µM (≈ 20.8 µg/mL) | 0.49 % free | 126% | 8.4 nM | 5.4 µL/min/mg | 30 µL/min/1e6 cells | 11 µL/min/1e6 cells | – | – | – | – | – | –
COc1cc(F)c(O[C@H]2CC[C@@](C)(C(=O)O)CC2)cc1C(=O)Nc1ccccc1C(=O)NCC1(C)CCC1 [Example 143, (1s,4s)-4-(2-Fluoro-4-methoxy-5-((2-(((1-methylcyclobutyl)methyl)-carbamoyl)phenyl)carbamoyl)phenoxy)-1-methylcyclohexane-1-carboxylic acid] | 1.6 µM (≈ 0.843 µg/mL) | 0.68 % free | 130% | – | < 3 µL/min/mg | 24 µL/min/1e6 cells | 6.9 µL/min/1e6 cells | – | – | – | – | – | –
COc1cc(C#N)c(O[C@H]2CC[C@@](C)(C(=O)O)CC2)cc1C(=O)N[C@@H]1[C@H]2CC[C@H](C2)[C@@H]1C(=O)NCC1(C)CC1 [Example 98] | 810 µM (≈ 436 µg/mL) | 13 % free | 133% | 55 nM | 8.7 µL/min/mg | 22 µL/min/1e6 cells | 4.9 µL/min/1e6 cells | – | – | – | – | – | –

The next lines start with results.

solubility [3] | Test B Human Plasma Protein Binding (% free) [5] | Test A Sinf [7] | EC50 [7] | microsomal CLint [2] | hepatocyte CLint [4] | hepatocyte CLint at 1 µM [6] | Molecule | significant blood pressure drop ([1]; approximately one third of the patients, after receiving serelaxin intravenously) | markers of cardiac, renal and hepatic damage and congestion ([1]; continuous intravenous administration to hospitalized patients) | clearance from the patients' circulation ([1]; patients, positive effects rapidly disappeared once intravenous injection stopped) | Test C Human Liver Microsomal Stability Clint ([2]; human liver microsomes) | Test E Rat Hepatocyte Stability Clint ([4]; rat hepatocytes) | Test D Human Hepatocyte Stability Clint ([6]; human hepatocytes)
920 µM (≈ 586 µg/mL) | 0.81 % free | 98% | – | < 3 µL/min/mg | 7 µL/min/1e6 cells | 3.7 µL/min/1e6 cells | COc1cc(F)c(-c2cnn(CC(=O)O)c2)cc1C(=O)N[C@H]1[C@@H](C(=O)Nc2cccc(S(=O)(=O)C(F)(F)F)c2)[C@@H]2C=C[C@H]1C2 [Example 271, 2-(4-(2-Fluoro-4-methoxy-5-(((1R,2R,3S,4S)-3-((3-((trifluoromethyl)sulfonyl)phenyl)carbamoyl)bicyclo[2.2.1]hept-5-en-2-yl)carbamoyl)phenyl)-1H-pyrazol-1-yl)acetic acid] | – | – | – | – | – | –
560 µM (≈ 354 µg/mL) | <0.30 % free | – | > 50000 nM | 21 µL/min/mg | 18 µL/min/1e6 cells | 13 µL/min/1e6 cells | COc1cc(F)c(-c2cccc(C(=O)O)c2)cc1C(=O)N[C@@H]1[C@H](C(=O)Nc2cccc(S(=O)(=O)C(F)(F)F)c2)[C@H]2C=C[C@@H]1C2 (single isomer, unassigned) [Example 555] | – | – | – | – | – | –
24 µM (≈ 16.1 µg/mL) | <0.32 % free | 107% | – | 5.1 µL/min/mg | 21 µL/min/1e6 cells | 5 µL/min/1e6 cells | COc1cc(F)c(-c2ccc(C3(C(=O)O)CC3)cc2)cc1C(=O)N[C@H]1[C@@H](C(=O)Nc2cccc(S(=O)(=O)C(F)(F)F)c2)[C@@H]2C=C[C@H]1C2 (racemic) [Example 288] | – | – | – | – | – | –
> 1000 µM | <0.30 % free | – | > 50000 nM | 9.9 µL/min/mg | 18 µL/min/1e6 cells | 9.2 µL/min/1e6 cells | COc1cc(F)c(-c2ccc(C(=O)O)cc2)cc1C(=O)N[C@@H]1[C@H](C(=O)Nc2cccc(S(=O)(=O)C(F)(F)F)c2)[C@H]2C=C[C@@H]1C2 (single isomer, unassigned) [Example 553] | – | – | – | – | – | –
550 µM (≈ 361 µg/mL) | 2.1 % free | 102% | 42 nM | 42 µL/min/mg | 23 µL/min/1e6 cells | 15 µL/min/1e6 cells | COc1cc(F)c(O[C@H]2CC[C@@H](C(=O)O)CC2)cc1C(=O)N[C@@H]1[C@H]2CC[C@H](C2)[C@@H]1C(=O)Nc1cccc(S(=O)(=O)C(F)(F)F)c1 [Example 491] | – | – | – | – | – | –
